{"source": "paper PMC7663263", "about": "(Molecules, 2020)", "key": {"[1]": {"system": "BL3 cells", "test": "Proliferation test on non-infected BL3 cells", "assay_type": "cell-based, bovine", "details": "[…] and 0.5 μM", "description": "(§1) Theileria annulata culture: The TBL3 cell line was derived by in vitro infection of the spontaneous bovine B-lymphosarcoma cell line BL3 with the Hissar stock of T. annulata. B cell characteristics of the lines have been described. The cells are maintained at 37 °C under 5% CO2, in RPMI medium supplemented with 10% FCS, 25 mM Hepes, 4 mM L-glutamine, 100 μg/mL of streptomycin, 100 IU/mL of penicillin and […] 2-mercapthoethanol.\n(§2) Cells were cultured in 12-well plates at an initial density of 200,000 cells per well in duplicate for each condition. […] The cells were cultured in 12-well plates at an initial density of 200,000 cells per well and drug was added every 24 h. To be able to compare the results, a drug-free control was also performed. Cell counting was done at 24, 72 and 96 h using the trypan blue method."}, "[2]": {"system": "adult ex vivo S. mansoni worms", "test": "Adult ex vivo Schistosoma worm killing assay", "assay_type": "cell-based", "description": "Adult ex vivo Schistosoma assay: Mice (Swiss-Webster) were infected with S. mansoni by percutaneous exposure for 1 h to cercariae (NMRI strain) obtained from infected Biomphalaria glabrata snails. This study was approved by the Institutional Animal Care and Use Committee of Rush University Medical Center (17-053; Department of Health and Human Services animal welfare assurance number A-3120-01). Adult worms were isolated from infected mice as described and cultured in RPMI medium +10% fetal calf serum (FCS), 10 mM glutamine, 100 IU/mL penicillin and 100 µg/mL streptomycin for 24 h before compound addition. Compounds were dissolved in DMSO and added at the indicated concentrations. The culture media was replaced every day and fresh compounds added. Control worms were treated with DMSO alone. Worms were cultured for 5 days. […] Assays were done in triplicate with about 10 worms in each well. This study was approved by the Institutional Animal Care and Use Committee of Rush University Medical Center (17-053; Department of Health and Human Services animal welfare assurance number A-3120-01)."}, "[3]": {"system": "Human TrxR", "details": "3.7 nM enzyme, 3 mM DTNB; after 10 min preincubation; read-out: IC50 Human TrxR, substrate DTNB; cited from earlier work"}, "[4]": {"system": "human fetal lung fibroblast (MRC-5)", "test": "in vitro", "description": "Toxicity in human fetal lung fibroblast (MRC-5) cell line and primary mouse macrophages (PMM) was assessed using a previously reported assay in 96-well microtiter plates. Tamoxifen and miltefosine were included as reference drugs (Table 10).\nFor MRC5SV2 or PMM cells, the assays were performed in 96-well microtiter plates, each well containing 10 µL of compound dilution and 190 µL of cell inoculum (3 × 10^4 cells/mL) as reported. Cell growth was compared to untreated controls (100% growth) and assay-media controls (0% growth). After three-day incubation, cell viability was assessed fluorometrically by adding resazurin [50 µL/well of a stock solution in phosphate buffer (50 µg/mL)], incubating for 4 h and measuring fluorescence (ex 550 nm, em 590 nm). The results are expressed as percentage reduction in cell growth as compared to untreated control wells. […] Tamoxifen was included as the reference drug."}, "[5]": {"biological_target": "T1, S. mansoni TGR (Schistosoma mansoni, UniProt Q962Y6)", "T1 construct": "made in house; host or cells: E. coli", "T1 sequence (Q962Y6 1-598)": "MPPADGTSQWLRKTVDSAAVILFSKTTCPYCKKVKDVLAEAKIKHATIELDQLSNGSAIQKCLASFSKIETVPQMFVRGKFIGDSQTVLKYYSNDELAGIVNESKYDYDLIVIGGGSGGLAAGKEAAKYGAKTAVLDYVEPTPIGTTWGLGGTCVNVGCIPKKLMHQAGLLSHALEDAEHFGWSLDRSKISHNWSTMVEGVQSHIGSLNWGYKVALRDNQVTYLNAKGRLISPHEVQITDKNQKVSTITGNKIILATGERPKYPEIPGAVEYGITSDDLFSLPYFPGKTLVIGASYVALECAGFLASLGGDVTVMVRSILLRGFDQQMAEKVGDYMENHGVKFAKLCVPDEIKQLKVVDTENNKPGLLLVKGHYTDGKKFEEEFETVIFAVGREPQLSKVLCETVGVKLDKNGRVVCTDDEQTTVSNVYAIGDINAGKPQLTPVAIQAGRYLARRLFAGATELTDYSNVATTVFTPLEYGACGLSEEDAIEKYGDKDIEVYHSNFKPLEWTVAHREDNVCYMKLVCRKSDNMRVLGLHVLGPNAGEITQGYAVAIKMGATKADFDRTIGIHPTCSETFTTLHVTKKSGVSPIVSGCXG", "test": "biochemical", "details": "40 nM enzyme, 3 mM DTNB; after 10 min preincubation; read-out: IC50 S. mansoni TGR, substrate DTNB (original data)", "description": "(§3) Enzymes were prepared in E. coli as described. Assays were performed at 25 °C in 0.1 M potassium phosphate (pH 7.4), 10 mM EDTA using 100 μM NADPH and 3 mM dithiobis(2-nitrobenzoic acid) (DTNB). […] The increase in A412 during the first 3 min was recorded upon DTNB addition. The reaction was done in triplicate."}, "[6]": {"system": "T. cruzi Tulahuen CL2", "test": "Anti-Chagas activity, T. cruzi on MRC-5 cells", "assay_type": "cell-based", "details": "amastigotes, MRC-5 host cells, 7 days; read-out: Trypanosoma cruzi IC50 (µM) ± SD", "description": "Anti-Chagas activity: T. cruzi Tulahuen CL2 (benznidazole-sensitive, LacZ-reporter strain) was maintained on MRC-5 cells in minimal essential medium (MEM) supplemented with […], 16.5 mM sodium hydrogen carbonate and 5% FCS. In the assay, 4 × 10^3 MRC-5 cells and 4 × 10^4 parasites were added to each well. After incubation at 37 °C for 7 days, parasite growth was assessed by adding the substrate chlorophenol red -D-galactopyranoside. The color reaction was read at 540 nm after 4 h and absorbance values were expressed as a percentage of the blank controls. Benznidazole was included as reference drug."}, "[7]": {"system": "BL3 cells", "assay_type": "cell-based, bovine", "description": "as §1, §2"}, "[8]": {"biological_target": "B. pahangi TrxR", "test": "B. pahangi TrxR enzyme assay, DTNB reduction (original data)", "assay_type": "biochemical, Brugia pahangi", "details": "100 nM enzyme, 3 mM DTNB; after 10 min preincubation; read-out: IC50 B. pahangi TrxR, substrate DTNB (original data)", "description": "as §3"}, "[9]": {"system": "O. ochengi microfilariae", "test": "O. ochengi microfilariae motility assay", "assay_type": "cell-based, Onchocerca ochengi", "details": "10 μM", "description": "O. ochengi microfilariae assays: were collected from the hides of infected cattle and washed prior to adding 10–15 microfilariae to 96-well culture plates containing confluent monkey kidney epithelial cells in 100 μL of media. Microfilariae were run in duplicate and plates were maintained at 37 °C in a 5% CO2 incubator. Microfilariae viability was visually scored using percent reduction of motility using the same scoring criteria used for adult males. Scores were recorded every 24 h after addition of drugs for 5 days using an inverted microscope."}}, "data": [{"smiles": "CC(=O)OCC1OC([S][Au][PH]2(c3ccccc3)C(c3ccccn3)=CC=C2c2ccccn2)C(OC(C)=O)C(OC(C)=O)C1OC(C)=O", "note": "[GoPI-sugar, 1-thio-β-D-glucopyranose 2,3,4,6-tetraacetato-S-Au{1-phenyl-2,5-di(2-pyridyl)phosphole}]", "values": [{"measurement": "proliferation of BL3 compared to untreated BL3 cells", "setting": "[1]", "value": "dampened"}, {"measurement": "Dead (%) Day 1", "setting": "[2]; 1 μM", "value": 0, "unit": "%"}, {"measurement": "Dead (%) Day 2", "setting": "[2]; 1 μM", "value": 0, "unit": "%"}, {"measurement": "Dead (%) Day 3", "setting": "[2]; 1 μM", "value": 0, "unit": "%"}, {"measurement": "Dead (%) Day 4", "setting": "[2]; 1 μM", "value": 0, "unit": "%"}, {"measurement": "Dead (%) Day 5", "setting": "[2]; 1 μM", "value": 0, "unit": "%"}, {"measurement": "Dead (%) Day 1", "setting": "[2]; 5 μM", "value": 100, "unit": "%"}, {"measurement": "Dead (%) Day 1", "setting": "[2]; 10 μM", "value": 100, "unit": "%"}, {"measurement": "IC50", "setting": "[3]", "value": "0.49 ± 0.04", "unit": "nM"}, {"measurement": "CC50", "setting": "[4]", "value": 590, "unit": "nM"}, {"measurement": "IC50", "setting": "[5]", "value": 12.5, "unit": "nM"}, {"measurement": "IC50", "setting": "[6]", "value": "0.56 ± 0.11", "unit": "µM"}, {"measurement": "CC50", "setting": "[7]", "value": "~500", "unit": "nM"}, {"measurement": "IC50", "setting": "[8]", "value": 5.5, "unit": "nM"}, {"measurement": "% Inhibition of Motility O. ochengi mf Day 5", "setting": "[9]", "value": 100, "unit": "%"}]}]}
